The text below walks through data of EP4803519A1, “NOVEL PRMT5 INHIBITOR AND USE THEREOF” (Shanghai Apeiron Therapeutics Company Limited, priority 2023, dated 2025).

As usually defined, the IC50 is the concentration that inhibits the measured activity by half. Higher therefore signals weaker potency.

What all share (type): cell-based
Assay [1] has as its system HCT-116 MTAP(-/-)deleted cells. Put plainly: Inhibitory activity on proliferation of HCT-116 MTAP(-/-)deleted cells (Cell-Titer Glo). The settings on record: Homo sapiens, 144 h, incubated 6 d, 0-1,000 nM. The procedure, abridged: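 HCT-116 MTAP(-/-) cells in RPMI 1640 with 10% FBS were seeded overnight, then exposed to compound (10 points, 2.5-fold dilutions from 1,000 nM; 0.2% DMSO) for 6 d at 37 °C. Viability was read by CellTiter-Glo luminescence.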

A further assay has as its system HCT-116 wild-type cells. Description: Inhibitory activity on proliferation of HCT-116 wild-type cells (Cell-Titer Glo). The settings on record: Homo sapiens, 144 h, incubated 6 d, 0-10,000 nM. The procedure, abridged:
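HCT-116 wild-type cells in RPMI-1640 with 10% FBS were plated overnight, then exposed to compound for 6 d at 37°C (0–10,000 nM final, 2.5-fold, 10 points, 0.2% DMSO). Viability was read by Cell-Titer Glo luminescence.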

In assay [2] the test system is LU99 MTAP(-/-)deleted cells. Description: Inhibitory activity on proliferation of LU99 MTAP(-/-)deleted cells (Cell-Titer Glo). The settings on record: Homo sapiens, Lu-99, 144 h, incubated 6 d, 0-1,000 nM. The procedure, abridged: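 Log-phase MTAP-deleted LU99 cells in 10%-FBS medium were plated overnight. Compound was then added at final 0–1,000 nM (10 points, 2.5-fold dilution from 1,000 nM) in 0.2% DMSO.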

For assay [3], the system named is LU99 MTAP overexpressing cells. Description: Inhibitory activity on proliferation of LU99 MTAP overexpressing cells (Cell-Titer Glo). Conditions: Homo sapiens, Lu-99, 144 h, incubated 6 d, 0-10,000 nM. The method in brief:
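After overnight seeding, LU99 cells overexpressing MTAP were exposed to compound at 0-10,000 nM (10 points, 2.5-fold dilutions, 0.2% DMSO) for 6 d at 37°C, 5% CO2. Viability read by Cell-Titer Glo luminescence.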

Regarding `CN(C(=O)c1cc2c(cc1Cl)nc(N)c1cnn(C)c12)C1COC(C)(C)c2cc(C(F)(F)F)ccc21` (centres unmarked) [Example 24, 4-amino-7-chloro-N-(1,1-dimethyl-7-(trifluoromethyl)isochroman-4-yl)-N,1-dimethyl-1H-pyrazolo[4,3-c]quinoline-8-carboxamide], the IC50 turned out to be 15.1 nM in assay [1], 156 nM in the assay on HCT-116 wild-type cells, 16.4 nM in assay [2] and 252 nM in assay [3].

`CN(C(=O)c1ccc2nc(N)c3cnn(C)c3c2c1)[C@@H]1COC(C)(C)c2cc(N3CC4(COC4)C3)ccc21` [Example 49, (S)-4-amino-N-(1,1-dimethyl-7-(2-oxa-6-azaspiro[3.3]heptan-6-yl)isochroman-4-yl)-N,1-dimethyl-1H-pyrazolo[4,3-c]quinoline-8-carboxamide]: the IC50 in assay [1] is 7.9 nM; in the assay with HCT-116 wild-type cells it was 3850 nM; in assay [2], 19.2 nM; in assay [3] it was 5890 nM.
